Data from patent US11028083B2, “Ethanediamine-heterocycle derivatives as inhibitors of protein arginine methyltransferases” (Board of Regents, The University of Texas System, priority 2018, dated 2021).
pIC50: −log10 of the molar value.

How the values were obtained:
[1] = molecular target: Full-length human GST-PRMT4 (Homo sapiens (Human), UniProt Q86X55); assay: PRMT4 RapidFire Mass Spectrometry Selectivity Assay (SAH production); format: biochemical; conditions: Rapid fire enzyme assay; 0.5 μM SAM, 15 nM Histone H3.3; read-out: PRMT-4 IC50
Full-length human GST-PRMT4, sequence (Q86X55 whole entry): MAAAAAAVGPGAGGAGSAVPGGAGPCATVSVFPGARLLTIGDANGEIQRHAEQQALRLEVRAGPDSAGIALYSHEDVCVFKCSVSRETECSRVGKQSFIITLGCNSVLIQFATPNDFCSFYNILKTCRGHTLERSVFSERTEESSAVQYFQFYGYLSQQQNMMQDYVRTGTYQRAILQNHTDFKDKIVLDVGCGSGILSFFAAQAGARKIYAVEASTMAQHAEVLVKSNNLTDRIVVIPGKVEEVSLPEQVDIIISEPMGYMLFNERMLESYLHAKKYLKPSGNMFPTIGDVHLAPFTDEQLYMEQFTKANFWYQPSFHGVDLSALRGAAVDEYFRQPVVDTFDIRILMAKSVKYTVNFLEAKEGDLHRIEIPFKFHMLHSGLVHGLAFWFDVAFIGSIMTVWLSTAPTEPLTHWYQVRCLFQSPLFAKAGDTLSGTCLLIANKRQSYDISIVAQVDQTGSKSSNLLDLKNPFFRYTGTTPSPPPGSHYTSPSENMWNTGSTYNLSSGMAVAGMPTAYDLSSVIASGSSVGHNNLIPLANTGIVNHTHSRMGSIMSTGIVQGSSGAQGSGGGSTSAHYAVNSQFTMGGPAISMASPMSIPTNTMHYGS
Text: Full-length human GST-PRMT4 (SignalChem, catalog#P365-380DG) was expressed by baculovirus in Sf9 insect cells.

[2] = molecular target: PRMT1 in RKO cells (Homo sapiens (Human), UniProt Q99873); assay: PRMT1 RKO Cellular Target Engagement Assay (In-Cell Western, asymmetric di-methyl arginine); format: cell-based; conditions: PRMT-1 Target Engagement, 48 hr compound incubation
PRMT1 in RKO cells, sequence (Q99873 whole entry): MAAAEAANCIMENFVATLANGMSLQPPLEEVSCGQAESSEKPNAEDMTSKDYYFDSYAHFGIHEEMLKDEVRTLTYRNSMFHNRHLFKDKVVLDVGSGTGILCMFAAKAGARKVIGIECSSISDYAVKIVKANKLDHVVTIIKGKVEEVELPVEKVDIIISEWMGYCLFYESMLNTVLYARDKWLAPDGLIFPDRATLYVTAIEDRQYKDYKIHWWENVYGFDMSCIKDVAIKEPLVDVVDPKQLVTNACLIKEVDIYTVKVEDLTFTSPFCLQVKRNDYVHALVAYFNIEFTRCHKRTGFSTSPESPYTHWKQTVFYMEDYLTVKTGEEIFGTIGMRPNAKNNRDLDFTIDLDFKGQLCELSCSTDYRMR
Experimental: In preparation for the In-Cell Western assay, cells were harvested and resuspended in EMEM media supplemented with 10% fetal bovine serum. […] The culture plate was incubated for 24 hr at 37° C. with 5% CO2 and ambient O2. […] The primary antibody was then removed, and the plate was washed three times with 1×PBST. […] The plate was then incubated in the dark, at room temperature for 1 hour followed by three washes with 1×PBST and one wash with H2O. The IRDye secondary antibody signal (800 channel) and the CellTag signal (700 channel) were measured using a Licor Odyssey Imager, and the 800 channel signal was then normalized to the 700 channel signal. IC50 values were calculated using a four-parameter logistic curve fit using Genedata Screener software.

[3] = molecular target: PRMT1 (Homo sapiens (Human), UniProt Q99873); assay: PRMT1 Enzymatic Assay (LANCE TR-FRET, methylation of histone H4 at Arg3); format: biochemical; conditions: PRMT-1 Enzymatic Assay; 1 μM SAM, 25 nM biotinylated histone H4 (1-21)
PRMT1, sequence (Q99873 whole entry): as above
Experimental: In order to measure PRMT1 enzymatic activity the LANCE TR-FRET assay from PerkinElmer was used to follow the methylation of histone H4 at Arg3 using S-adenosyl-L-methionine (SAM) as the methyl group donor.
Final concentrations of PRMT1, SAM, and histone H4 (1-21) refer to a 10 μL volume.
Detection of methylated histone H4 (H4R3me) was achieved by combining LANCE Ultra Europium-anti-H4R3me antibody (PerkinElmer, Catalog #TRF04-14), LANCE Ultra ULight-anti-streptavidin antibody (PerkinElmer, Catalog #TRF0102), and sinefungin (Sigma, Catalog #S8559) (final concentrations 2 nM, 50 nM, and 100 μM respectively) in 1×LANCE detection buffer (PerkinElmer, Catalog #CR97-100) and adding 10 μL/well of the detection solution to the assay plate. Detection reagents were allowed to react for 1 hour at room temperature. Final concentrations in the detection solution refer to a 20 μL volume.

[4] = molecular target: Full-length human PRMT6 (1-375) (Homo sapiens (Human), UniProt Q96LA8); assay: PRMT6 RapidFire Mass Spectrometry Selectivity Assay (SAH production); conditions: read-out: PRMT-6 IC50; Rapid fire enzyme assay; 3 μM SAM, 250 nM Histone H4 (36-50) K44 MeI
Full-length human PRMT6 (1-375), sequence (Q96LA8 whole entry): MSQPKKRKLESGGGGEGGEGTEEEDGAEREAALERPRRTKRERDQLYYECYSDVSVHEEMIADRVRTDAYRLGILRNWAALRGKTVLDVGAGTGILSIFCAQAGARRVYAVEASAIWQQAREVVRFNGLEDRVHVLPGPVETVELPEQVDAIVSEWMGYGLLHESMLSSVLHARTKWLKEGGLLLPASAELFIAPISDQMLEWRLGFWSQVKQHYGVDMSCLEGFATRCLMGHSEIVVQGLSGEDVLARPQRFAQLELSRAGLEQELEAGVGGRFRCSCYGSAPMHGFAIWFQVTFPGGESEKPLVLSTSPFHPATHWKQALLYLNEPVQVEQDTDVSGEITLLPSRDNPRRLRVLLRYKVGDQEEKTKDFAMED
Experimental: The PRMT6 assay was performed by dispensing 6 uL/well (final concentration of 10 nM) of PRMT6 protein diluted in assay buffer to the plate. Stock solutions of the test compounds were prepared in 100% DMSO (Sigma, Catalog #D2650) and serially diluted 1:3 using 100% DMSO. Compounds were additionally diluted 1:50 in assay buffer, and 6 μL/well were transferred to the assay plate. Plates were allowed to incubate for 15 min at room temperature.
RapidFire buffer A contained H2O and buffer B was 80% acetonitrile/H2O. […] SAH peaks were integrated using RapidFire peak software and IC50 values were calculated using a four-parameter logistic curve fit using Genedata Screener software.

[5] = molecular target: Full-length human PRMT1 (1-361) (Homo sapiens, UniProt Q99873); assay: PRMT1 RapidFire Mass Spectrometry Selectivity Assay (SAH production); format: biochemical; conditions: Rapid fire enzyme assay; 1 μM SAM, 50 nM histone H4 (1-21); read-out: PRMT-1 IC50

| SMILES | pIC50 [1] | pIC50 [3] | other results |
| --- | --- | --- | --- |
| CCOCC1(COCC)CCC(c2c(CN(C)CCNC)nn3c2CCC3)CC1 [Example 2, N^1-((3-(4,4-bis(ethoxymethyl)cyclohexyl)-5,6-dihydro-4H-pyrrolo[1,2-b]pyrazol-2-yl)methyl)-N^1, N^2-dimethylethane-1,2-diamine] | 7.10 | – | – |
| CNCCN(C)Cc1nn2c(c1C1CCCCC1)CCC2 [Example 11, N^1-((3-cyclohexyl-5,6-dihydro-4H-pyrrolo[1,2-b]pyrazol-2-yl)methyl)-N^1,N^2-dimethylethane-1,2-diamine] | 6.18 | 7.36 | pIC50 [2]: 4.85; pIC50 [4]: 7.00; pIC50 [5]: 7.03 |
| CNCCN(C)Cc1nn2c(c1C1CCCCC1)CCCC2 [Example 21, N^1-((3-cyclohexyl-4,5,6,7-tetrahydropyrazolo[1,5-a]pyridin-2-yl)methyl)-N^1,N^2-dimethylethane-1,2-diamine] | 5.95 | – | – |
| CCOCC1(COCC)CCC(c2c(CNCCN)nn3c2CC(F)(F)C3)CC1 [Example 92, N^1-((3-(4,4-bis(ethoxymethyl)cyclohexyl)-5,5-difluoro-5,6-dihydro-4H-pyrrolo[1,2-b]pyrazol-2-yl)methyl)ethane-1,2-diamine] | – | 7.14 | – |

Further lines, with some results ahead:

| pIC50 [1] | pIC50 [3] | SMILES | other results |
| --- | --- | --- | --- |
| 6.94 | – | CNCCN(C)Cc1nn2c(c1C1CCC3(CCCC3)CC1)CCC2 [Example 49, N^1,N^2-dimethyl-N^1-((3-(spiro[4.5]decan-8-yl)-5,6-dihydro-4H-pyrrolo[1,2-b]pyrazol-2-yl)methyl)ethane-1,2-diamine] | – |
| 6.47 | – | CNCCN(C)Cc1nn2c(c1C1CCC(C)(C)CC1)CCC2 [Example 51, N^1-((3-(4,4-dimethylcyclohexyl)-5,6-dihydro-4H-pyrrolo[1,2-b]pyrazol-2-yl)methyl)-N^1,N^2-dimethylethane-1,2-diamine] | – |
